Results published in US9314498B2, “Bacteriocin derived from Lactobacillus rhamnosus” (priority 2011, dated 2016).
Where no end group is shown, it is not given here.

What was measured:
[1] = tested on: Candida albicans GDH18 strain; test: Antimicrobial activity (CFU count, percentage of living cells) against Candida albicans GDH18; format: cell-based; conditions: 37° C., 90 minutes, 1 mM phosphate buffer
From the text: As the Candida, cariogenic bacteria and periodontal disease bacteria, the Candida albicans GDH18 strain, Streptococcus sobrinus B-13 strain, Streptococcus mutans NCTC10449 strain, Streptococcus mutans Ingbritt strain, Porphyromonas gingivalis Hudoi001 strain and Aggregatibacter actinomycetemcomitans Hudoe001 strain were used. The test strains were provided from Faculty of Dentistry, Hiroshima University, Japan, and Hiroshima University Dental Hospital.
(§1) The Candida albicans GDH18 strain was precultured using SD medium (Difco) at 37° C. for 24 hours under aerobic conditions. The Streptococcus sobrinus B-13 strain, Streptococcus mutans NCTC10449 strain and Streptococcus mutans Ingbritt strain were precultured using TSB medium (Difco) supplemented with 5% yeast extract (Difco) at 37° C. for 24 hours under aerobic conditions. The Porphyromonas gingivalis Hudoi001 strain and Aggregatibacter actinomycetemcomitans Hudoe001 strain were precultured using BHI medium (Difco) supplemented with hemin (5 mg/L) and vitamin K3 (1 mg/L) at 37° C. for 96 hours under anaerobic conditions with Anaero Pack System (Mitsubishi Gas Chemical Company, Inc.).
(§2) After the culture, the cells of the Candida, cariogenic bacteria and periodontal disease bacteria were collected by centrifugation at 1000×g, and washed twice with 1 mM phosphate buffer (pH 6.8). The cells were then suspended such that the final concentration was 1×10^8 cfu/ml or 1×10^7 cells/m. For suspension of the Streptococcus strains, ultrasonic treatment was also carried out.
(§3) Evaluation of the antimicrobial activity was carried out by the method by Edgerton and others (1998) with some modifications. With 20 mL of 1 mM phosphate buffer containing 0 to 25 μM Kog1 or Kog2 synthesized in Example 1, 20 μl of the suspension of the Candida albicans GDH18 strain cultured and prepared by the method described in the above Preparation Example was mixed, and the resulting mixture was incubated at 37° C. for 90 minutes with shaking. As a control, 20 ml of 1 mM phosphate buffer alone was used. The reaction was stopped by addition of 360 ml of YNB medium (Difco), and the number of colonies formed (colony forming units; CFUs) was counted together with the number of colonies in the control, to determine the percentage of living bacterial cells. That is, the equation of: (CFUs of suspension containing Kog1 or Kog2/CFU ml^−1 of control suspension)×100 was used to calculate the percentage.

[2] = Measurement of the isoelectric point of the synthesized peptides; format: physicochemical; conditions: synthesized peptide
From the text: Among antimicrobial peptides, hBD2 (human P-defensin-2 (see Eur J., 2002, Oral Sci. (109), 121-124)) is well known as a basic antimicrobial peptide, and has an isoelectric point of about 10. However, the isoelectric points of Kog1 and Kog2 of the embodiment 2 were higher than the isoelectric point of hBD2, and more similar to the isoelectric points of antimicrobial peptides derived from mammals. Thus, Kog1 and Kog2 were confirmed to have less cytotoxicity.

[3] = tested on: Streptococcus sobrinus B-13 strain; test: Antimicrobial activity against Streptococcus sobrinus B-13; format: cell-based; conditions: tested 0 to 100 μM
Method: [The procedure below names another organism; the source lists this organism under the same test.] as §1, §2
as §3, with “percentage. […]” for “percentage.”

[4] = tested on: Streptococcus mutans NCTC10449 strain; test: Antimicrobial activity against Streptococcus mutans NCTC10449; format: cell-based; conditions: 0 to 100 μM, FIG. 4
[5] = tested on: Streptococcus mutans Ingbritt strain; test: Antimicrobial activity against Streptococcus mutans Ingbritt; format: cell-based; conditions: 0 to 100 μM, FIG. 5
[6] = tested on: Porphyromonas gingivalis Hudoi001 strain; test: Antimicrobial activity against Porphyromonas gingivalis Hudoi001; format: cell-based; conditions: not shown in the figures
Method: as §1, §2
That is, it is assumed that, in Examples described in Patent Literature 1, the Lactobacillus rhamnosus KO3 strain expressed Kog1 and Kog2, and the expressed Kog1 and Kog2 exerted antimicrobial activity against the Porphyromonas gingivalis Hudoi001 strain. […]

[7] = tested on: Aggregatibacter actinomycetemcomitans Hudoe001 strain; test: Antimicrobial activity against Aggregatibacter actinomycetemcomitans Hudoe001; format: cell-based; conditions: tested 0 to 50 μM
[8] = tested on: Porphyromonas gingivalis LPS (P.g-LPS) on RAW264.7 macrophage-like cells, ccl2; test: LPS inactivation: ccl2 secretion of RAW264.7 cells (ELISA); format: cell-based, mouse; conditions: 100 ng/ml P.g-LPS preincubated 2 hours with 5, 10, 20 μM Kog1; as amount added increased
Method: (§4) As a medium, RPMI 1640 medium supplemented with 10% FBS (Fetal Bovine Serum) (Biological industries, Haemek, Israel), 1% antibiotic and 1% L-glutamine was used. In each well of a 24-well plate, 400 μl of the medium was placed, and 100,000 cells/well of mouse-derived RAW264.7 macrophage-like cells were inoculated thereto.
(§5) The bacteriocin Kog1 or Kog2, which was the same as in Example 1, was incubated in an Eppendorf tube under each of the following 4 conditions together with Porphyromonas gingivalis LPS (manufactured by InvivoGen) (hereinafter referred to as P.g-LPS) and the same medium as described above, at 37° C. under a gas phase of 5% CO2 for 2 hours: (1) 100 ng/ml P.g-LPS positive control; (2) 100 ng/ml P.g-LPS+5 μM Kog1 or Kog2; (3) 100 ng/ml P.g-LPS+10 μM Kog1 or Kog2; (4) 100 ng/ml P.g-LPS+20 μM Kog1 or Kog2.
(§6) The above-described medium placed in each well of the 24-well plate was removed using a pipetteman, and the medium in the Eppendorf tube for each of the 4 conditions described above was placed in the plate, followed by culturing the cells in the well plate at 37° C. under a gas phase of 5% CO2 for 12 hours. Thereafter, the culture supernatant was collected, and the amount of a chemokine ccl2 or the amount of a cytokine TNF-α secreted into the medium was quantified by the ELISA method by measuring the absorbance at 450 nm using a microplate reader. Since both ccl2 and TNF-α are involved in formation of inflammation, analysis of the relationship between the endotoxin LPS and the bacteriocins Kog1 and Kog2 is possible.

[9] = tested on: Porphyromonas gingivalis LPS (P.g-LPS) on RAW264.7 macrophage-like cells, TNF-α; test: LPS inactivation: TNF-α secretion of RAW264.7 cells (ELISA); format: cell-based; conditions: 100 ng/ml P.g-LPS preincubated 2 hours with 5, 10, 20 μM Kog1; as amount added increased
Method: as §4, §5, §6

[10] = tested on: Candida albicans MYA274 strain; test: Boiling experiment: antimicrobial activity (ATP) against Candida albicans MYA274; format: cell-based; conditions: concluded from supernatant boiled at 100° C. for 20 minutes; peptides not directly used
Method: In Example 9, antimicrobial activity against the Candida albicans MYA274 strain was investigated. The Candida albicans MYA274 strain was precultured in Sabouraud dextrose broth (Difco) at 37° C. for 24 hours, and then washed twice with MQ water, followed by being prepared such that OD600 is 0.3 (1.0×10^7 cells/ml).
In Example 9, the bacteriocin Kog1 or Kog2, or the Lactobacillus rhamnosus KO1 strain or KO3 strain, was not directly used. Instead, a lactic acid bacterium medium containing the Lactobacillus rhamnosus KO3 strain, 8020 yogurt (liquid type), was used in the experiment More specifically, the 8020 yogurt (liquid type) was prepared by adding the Lactobacillus rhamnosus KO3 strain at a concentration of 1% and YF-L811 starter at a concentration of 1% to the 15% skim milk+3% glucose medium, and then performing culture at 35° C. for 2 days.
Such 8020 yogurt (liquid type) was centrifuged to obtain a supernatant from which the lactic acid bacterium was removed (hereinafter referred to as Supernatant B). In the experiment, Supernatant B and a sample prepared by boiling Supernatant B at 100° C. for 20 minutes (hereinafter referred to as Supernatant Boil) were used. […]
In order to study changes in the antimicrobial activity by boiling, the following 3 kinds of samples were placed in a 24-well plate, and the value of ATP (pmol/L) after 24 hours of incubation at 37° C. was measured. […]

[11] = well known basic antimicrobial peptide, literature; cited from earlier work

In the case of `C[C@@H]1[C@H](O)[C@@H](C)/C=C/C=C/C=C/C=C/C=C/C=C/C=C/[C@H](O[C@@H]2O[C@H](C)[C@@H](O)[C@H](N)[C@@H]2O)C[C@@H]2O[C@](O)(C[C@@H](O)C[C@@H](O)[C@H](O)CC[C@@H](O)C[C@@H](O)CC(=O)O[C@H]1C)C[C@H](O)[C@H]2C(=O)O` [amphotericin B], the “peptide concentration at which 100% of the strain was killed” value [1] is reported as 5 µM.

In the case of “JH8194: antimicrobial peptide of JP 3472821 B (amino acid sequence shown in SEQ ID NO: 7) (KRLFRRWQWRMKKY; Antimicrobial peptide)”, the “peptide concentration at which 100% of the strain was killed” value [1] is reported as 2.5 µM.

With “Kog1: peptide having the amino acid sequence shown in SEQ ID NO: 1, bacteriocin of Lactobacillus rhamnosus, synthesized by the tea-bag method (MAKARPSRPRPLTLRSLTAPAHAHKKWASRWILSMRLARVFGIEKPHG; listed as Lactobacillus rhamnosus)” the “isoelectric point (pl)” value [2] was 12.90, the “peptide concentration at which 100% of the strain was killed” value [1] was 0.39 µM and the “peptide concentration at which 100% of the strain was killed” value [3] was 1.56 µM. The “antimicrobial activity compared to the other antimicrobial peptides (hBD2, lysozyme)” value [4] was “capable of killing a larger amount of Streptococcus mutans even at relatively low peptide concentration”, the “antimicrobial activity compared to the other antimicrobial peptides (hBD2, lysozyme)” value [5] was “capable of killing a larger amount of Streptococcus mutans even at relatively low peptide concentration” and the antimicrobial activity [6] was “capable of exerting antimicrobial activity”. The “peptide concentration at which 100% of the strain was killed” value [7] was 3.13 µM, the “amount of the chemokine ccl2 secreted” value [8] was “decreased” and the “amount of the cytokine TNF-α secreted” value [9] was “decreased”. The “heat resistance (antimicrobial activity after heating)” value [10] was “still maintain antimicrobial activity after heating”.

In the case of “hBD2: human β-defensin-2, well known basic antimicrobial peptide (GIGDPVTCLKSGAICHPVFCPRRYKQIGTCGLPGTKCCKKP; ends and bridges not checked; cysteine pairing not given here; UniProt O15263 24-64, looked up) [reference compound]”, the “peptide concentration at which 100% of the strain was killed” value [3] is listed as 3.125 µM and the isoelectric point [11] is listed as “about 10”.

In the case of “histatin 5: antimicrobial peptide derived from human saliva (amino acid sequence shown in SEQ ID NO: 6) (DSHEKRHHGYKRKFHEKHHSHRGY; Antimicrobial peptide)”, the “peptide concentration at which 100% of the strain was killed” value [1] is reported as 100 µM.

For “lactoferricin B: antimicrobial peptide derived from milk (amino acid sequence shown in SEQ ID NO: 5) (FKCRRWQWRMKKLGAPSITCVRRAF; Antimicrobial peptide)”, the “peptide concentration at which 100% of the strain was killed” value [1] was 5 µM.
